Data reported in ChEMBL document CHEMBL6127037, “Design, synthesis, and biological evaluation of imidazolylacetophenone oxime derivatives as novel brain-penetrant agents for Alzheimer's disease treatment” (Eur J Med Chem, 2024).
Calls of active or inactive are those of the source. No cut-off for these calls is given here.

Assays:
BV-2 [1] = assay: Anti-neuroinflammatory activity against LPS-stimulated mouse BV-2 cells assessed as inhibition of NO production at 1 uM; assay type: functional; parameters: scale not given: the % may be the effect or the level left
[2] = Cytotoxicity against LPS stimulated mouse BV-2 cells assessed as cell survival at 10 uM by MTT assay; assay type: toxicity, cell-based; details: LPS-stimulated BV-2 cells, read-out: Activity
BV-2 [3] = assay: Anti-neuroinflammatory activity against LPS-stimulated mouse BV-2 cells assessed as inhibition of NO production at 10 uM; assay type: functional; parameters: scale not given: the % may be the effect or the level left
HT-22 = assay: Neuroprotective activity against RSL3 induced ferroptosis in mouse HT-22 cells assessed as increase in cell viability at 10 uM preincubated for 4 hrs followed by RSL3 stimulation and measured after 24 hrs by MTT assay (reference value: 52.1%); assay type: functional; details: time 28 hrs
PC12 = assay: Neuroprotective activity against 6-OHDA induced oxidative damage in […] cells assessed as increase in cell viability preincubated for 4 hrs followed by 6-OHDA stimulation and measured after 24 hrs by MTT assay (reference value: 48.6%); assay type: functional, cell-based; details: Rattus norvegicus, dose 1-10 µM, time 28.0 hrs
[4] = Cytotoxicity against […] cells assessed as cell survival at 20 uM by MTT assay; assay type: toxicity, cell-based, Rattus norvegicus; details: read-out: Survival
[5] = biological target: Amyloid-beta precursor protein (Homo sapiens) (UniProt P05067); assay: Inhibition of self-induced amyloid beta (1 to 42 residues) (unknown origin) aggregation at 5 to 20 uM by thioflavin T based fluorescence analysis; details: dose 5-20 µM
[6] = Cytotoxicity against mouse HT-22 cells assessed as cell survival at 20 uM by MTT assay; assay type: toxicity, cell-based; details: read-out: Survival
[7] = biological target: Acetylcholinesterase (Electrophorus electricus) (UniProt O42275); assay: Inhibition of electric eel AChE at 20 uM using […] as substrate pretreated for 20 mins prior to DTNB addition for 30 mins followed by substrate addition and measured after 45 mins by Ellman's method relative to control; details: time 95.0 min
BV-2 [8] = assay: Anti-neuroinflammatory activity against LPS-stimulated mouse BV-2 cells assessed as inhibition of NO production; assay type: functional, cell-based

Amyloid-beta precursor protein (Homo sapiens), sequence (P05067 whole entry, the tested form may be a part): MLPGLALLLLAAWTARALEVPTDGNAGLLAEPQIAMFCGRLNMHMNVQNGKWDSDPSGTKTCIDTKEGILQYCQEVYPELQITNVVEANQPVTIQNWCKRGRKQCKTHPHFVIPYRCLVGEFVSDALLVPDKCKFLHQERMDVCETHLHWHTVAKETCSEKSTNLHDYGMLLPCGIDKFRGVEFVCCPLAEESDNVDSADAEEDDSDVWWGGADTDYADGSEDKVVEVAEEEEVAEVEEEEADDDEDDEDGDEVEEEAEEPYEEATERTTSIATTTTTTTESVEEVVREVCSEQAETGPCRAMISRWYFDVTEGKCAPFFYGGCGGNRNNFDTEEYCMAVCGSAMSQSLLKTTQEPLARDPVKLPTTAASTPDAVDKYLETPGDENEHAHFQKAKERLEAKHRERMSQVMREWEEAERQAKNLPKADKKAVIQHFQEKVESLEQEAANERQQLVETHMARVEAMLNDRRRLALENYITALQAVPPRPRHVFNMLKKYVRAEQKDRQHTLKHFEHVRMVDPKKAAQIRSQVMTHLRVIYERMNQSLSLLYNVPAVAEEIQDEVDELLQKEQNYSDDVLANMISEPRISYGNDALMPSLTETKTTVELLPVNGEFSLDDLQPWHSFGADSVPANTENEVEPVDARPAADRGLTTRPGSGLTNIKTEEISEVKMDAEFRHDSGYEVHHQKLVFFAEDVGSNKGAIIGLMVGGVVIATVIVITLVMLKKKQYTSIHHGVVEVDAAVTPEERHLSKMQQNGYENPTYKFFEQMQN
Acetylcholinesterase (Electrophorus electricus), sequence (O42275 24-633 limits assumed): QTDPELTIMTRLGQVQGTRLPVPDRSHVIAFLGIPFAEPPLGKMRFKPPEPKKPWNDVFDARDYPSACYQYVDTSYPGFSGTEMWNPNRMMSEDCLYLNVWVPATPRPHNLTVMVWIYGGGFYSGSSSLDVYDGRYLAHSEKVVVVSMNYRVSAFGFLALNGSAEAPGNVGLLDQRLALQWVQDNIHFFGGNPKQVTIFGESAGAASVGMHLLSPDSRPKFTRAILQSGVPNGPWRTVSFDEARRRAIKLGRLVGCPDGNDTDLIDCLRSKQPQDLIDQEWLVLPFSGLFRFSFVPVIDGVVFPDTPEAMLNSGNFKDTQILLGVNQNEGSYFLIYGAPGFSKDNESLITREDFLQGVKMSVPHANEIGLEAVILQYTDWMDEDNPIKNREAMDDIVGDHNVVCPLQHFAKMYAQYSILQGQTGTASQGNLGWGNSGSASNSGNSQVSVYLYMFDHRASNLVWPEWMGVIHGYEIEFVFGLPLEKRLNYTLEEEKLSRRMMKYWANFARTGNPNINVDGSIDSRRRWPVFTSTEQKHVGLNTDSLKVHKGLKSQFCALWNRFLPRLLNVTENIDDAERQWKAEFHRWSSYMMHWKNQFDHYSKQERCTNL

Row | SMILES | Activity (BV-2 [1]) | viability at 10 µM [2] | Activity (BV-2 [3]) | Activity (HT-22) | Activity (PC12) | viability at 20 µM [4] | inhibition [5] | viability at 20 µM [6] | inhibition [7] | EC50 (BV-2 [8])
1 | C#CCO/N=C(\Cn1cnc(CO)c1C)c1ccc2c(c1)OCO2 | 27.6% | 75.8% | 48.7% |  |  |  |  |  |  | 
2 | C#CCO/N=C(\Cn1ccnc1)c1ccc(N(C)C)cc1 | 30.9% | 103% | 49.6% | 62.5% | Dose-Dependent Effect | > 95% | Active | > 90% | 70.3% | 6.78 µM
3 | FCCOCCOCCO/N=C(\Cn1ccnc1)c1ccc2c(c1)OCO2 | 24.4% | 99.9% | 53.9% |  |  |  |  |  |  | 
4 | C#CCO/N=C(\Cn1ccnc1)c1ccc(C(=O)OCC)cc1 | 34.8% | 115% | 73.5% |  |  |  |  |  |  | 
5 | O=C(/C=C/c1ccc2c(c1)OCO2)O/N=C(\Cn1ccnc1)c1ccc2c(c1)OCO2 | 35.8% | 85.2% | 73% |  |  |  |  |  |  | 
6 | CN(C)c1ccc(/C(Cn2ccnc2)=N/OC/C=C/c2ccccc2)cc1 | 22.5% | 98.1% | 40.7% |  |  |  |  |  |  | 
7 | CN(C)c1ccc(/C(Cn2ccnc2)=N/OCc2ccccc2)cc1 | 27.6% | 97.3% | 48.7% |  |  |  |  |  |  | 
8 | O=c1c(O)c(-c2ccc(O)c(O)c2)oc2cc(O)cc(O)c12 [QUERCETIN] |  | 91.3% | 52.8% |  |  |  |  |  |  | 
9 | C#CCO/N=C(/Cn1ccnc1)c1ccc2c(c1)OCO2 | 13.4% | 98.4% | 25.5% |  | Dose-Dependent Effect | > 95% |  |  |  | > 20 µM
10 | CN(C)c1ccc(/C(Cn2ccnc2)=N/OC(=O)/C=C/c2ccc3c(c2)OCO3)cc1 | 22.2% | 96.7% | 34.2% |  | Dose-Dependent Effect | > 95% |  |  |  | 15.7 µM
11 | C#CCO/N=C(\Cn1ccnc1)c1ccc(C(=O)OC)cc1 | 36% | 105% | 72.7% |  |  |  |  |  |  | 
12 | CN(C)c1ccc(/C(Cn2ccnc2)=N/OC(=O)/C=C/c2ccccc2Cl)cc1 | 38.8% | 105% | 65.8% |  |  |  |  |  |  | 
13 | C#CCO/N=C(\Cn1ccnc1)c1ccc2c(c1)OCO2 | 45.2% | 95.9% | 84.5% |  | Dose-Dependent Effect | > 95% |  |  |  | 1.18 µM
14 | FCCCO/N=C(\Cn1ccnc1)c1ccc2c(c1)OCO2 | 31.1% | 87.7% | 65% |  |  |  |  |  |  | 
15 | COc1cc(/C=C/C(=O)O/N=C(\Cn2ccnc2)c2ccc3c(c2)OCO3)ccc1O | 39.4% | 89.4% | 67.6% |  |  |  |  |  |  | 
16 | Cc1c(CO)ncn1CC(=O)c1ccc2c(c1)OCO2 | 27.4% | 99.8% | 37.7% |  |  |  |  |  |  | 
